Values quoted from earlier work, collected in patent publication US8088760B2, “Benzoxazole carboxamide inhibitors of poly(ADP-ribose)polymerase (PARP)” (BioMarin Pharmaceutical Inc., priority 2008, dated 2012).
pKi: −log10 of the molar value.

What was measured:
PARP-1 = PARP-1 (Homo sapiens, UniProt P09874); settings: PARP-1 inhibitor
[1] = tested on: BRCA2-deficient cell line V-C8; settings: BRCA2-deficient cell line V-C8 compared with the BRCA2 wild type control
CAPAN-1 cells = CAPAN-1 cells maintained in DMEM supplemented with FCS (20% v/v), glutamine and antibiotics

PARP-1, sequence (P09874 whole entry, species assumed): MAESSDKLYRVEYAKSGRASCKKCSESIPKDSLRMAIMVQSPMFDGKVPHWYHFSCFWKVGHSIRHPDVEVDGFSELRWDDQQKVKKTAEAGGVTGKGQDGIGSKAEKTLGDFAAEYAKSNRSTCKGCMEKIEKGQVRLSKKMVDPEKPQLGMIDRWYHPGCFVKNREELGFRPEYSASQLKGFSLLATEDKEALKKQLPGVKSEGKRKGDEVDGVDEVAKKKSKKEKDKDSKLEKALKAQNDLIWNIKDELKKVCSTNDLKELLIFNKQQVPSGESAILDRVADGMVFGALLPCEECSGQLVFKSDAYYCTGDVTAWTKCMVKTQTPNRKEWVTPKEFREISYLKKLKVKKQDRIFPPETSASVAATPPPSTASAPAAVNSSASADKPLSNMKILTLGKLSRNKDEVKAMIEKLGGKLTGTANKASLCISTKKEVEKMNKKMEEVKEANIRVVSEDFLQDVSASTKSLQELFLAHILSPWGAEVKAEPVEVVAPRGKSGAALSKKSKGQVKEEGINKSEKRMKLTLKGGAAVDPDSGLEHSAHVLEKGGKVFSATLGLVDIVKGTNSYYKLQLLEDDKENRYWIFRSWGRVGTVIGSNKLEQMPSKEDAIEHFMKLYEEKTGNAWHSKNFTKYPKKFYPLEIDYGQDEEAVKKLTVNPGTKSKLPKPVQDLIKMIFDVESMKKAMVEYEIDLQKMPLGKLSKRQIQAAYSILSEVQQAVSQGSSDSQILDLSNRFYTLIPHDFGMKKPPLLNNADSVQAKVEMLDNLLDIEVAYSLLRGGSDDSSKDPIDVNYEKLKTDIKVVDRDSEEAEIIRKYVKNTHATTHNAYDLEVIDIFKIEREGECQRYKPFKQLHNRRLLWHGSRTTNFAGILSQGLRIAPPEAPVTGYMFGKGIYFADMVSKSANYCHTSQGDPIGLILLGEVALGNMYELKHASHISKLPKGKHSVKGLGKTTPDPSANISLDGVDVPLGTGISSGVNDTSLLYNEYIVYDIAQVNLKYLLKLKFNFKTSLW

| SMILES | pKi (PARP-1) | sensitivity in clonogenic survival assay [1] | sensitivity in clonogenic survival assay (CAPAN-1 cells) | in vivo efficacy in blocking tumor growth (BRCA2-deficient tumors) |
| --- | --- | --- | --- | --- |
| CN(C)Cc1ccc(-c2nc3cccc4c3n2CCNC4=O)cc1 [AG14361] | 8.30 | exhibited sensitivity |  |  |
| Cc1nc2c(O)cccc2c(=O)[nH]1 [NU1025] | 7.30 | exhibited sensitivity |  |  |
| O=C1CCC(=O)N1c1cc(Cc2n[nH]c(=O)c3ccccc23)ccc1F [KU0058684] |  |  | showing sensitivity to PARP inhibition | in vivo efficacy in blocking the growth of BRCA2-deficient tumors |
